# Measured values: ChEMBL document CHEMBL1158164, “2-Deoxy-2,3-didehydro-N-acetylneuraminic acid analogs structurally modified by thiocarbamoylalkyl groups at the C-4 position: Synthesis and biological evaluation as inhibitors of human parainfluenza virus type 1” (Bioorg Med Chem, 2008)
# Assay: Inhibition of hPIV1 sialidase
# Design: species or system Human respirovirus 1
row,IC50 [µM],Compound
1,9,CC(=O)N[C@H]1[C@H]([C@H](O)[C@H](O)CO)OC(C(=O)O)=C[C@@H]1OCC(N)=S
2,68,CC(=O)N[C@H]1[C@H]([C@H](O)[C@H](O)CO)OC(C(=O)O)=C[C@@H]1OCCC(N)=S
3,102,CC(=O)N[C@H]1[C@H]([C@H](O)[C@H](O)CO)OC(C(=O)O)=C[C@@H]1OCCCC(N)=S
4,300,CC(=O)N[C@H]1[C@H]([C@H](O)[C@H](O)CO)OC(C(=O)O)=C[C@@H]1O [NEU5AC2EN]
